According to ChEMBL document CHEMBL4229452, “Expanding chemical space of DNA-binding molecules with three base-binding units” (Bioorg Med Chem Lett, 2018):
Activity calls are given as the source filed them. No cut-off for these calls is given here.

Key:
Assay type in all cases: nucleic-acid assay
dsDNA [1] = experiment: Binding affinity to 5'-(CTAA GGC AATG)-3'/5'-(CATT GGC TTAG)-3' duplex DNA (unknown origin) assessed as change in melting temperature at 20 uM by UV-spectrophotometric method
dsDNA [2] = experiment: Binding affinity to 5'-(CTAA GGC AATG)-3'/5'-(CATT GGC TTAG)-3' duplex DNA (unknown origin) at < 10 uM by fluorescence titration method
dsDNA [3] = experiment: Binding affinity to 5'-(CTAA CGG AATG)-3'/5'-(CATT CGG TTAG)-3' duplex DNA (unknown origin) assessed as apparent association […] constant at 60 uM by isothermal titration calorimetric method
dsDNA [4] = experiment: Binding affinity to 5'-(CTAA CGG AATG)-3'/5'-(CATT CGG TTAG)-3' duplex DNA (unknown origin) at < 10 uM by fluorescence titration method
dsDNA [5] = experiment: Binding affinity to 5'-(CTAA CGG AATG)-3'/5'-(CATT CGG TTAG)-3' duplex DNA (unknown origin) assessed as change in melting temperature at 20 uM by UV-spectrophotometric method
dsDNA [6] = experiment: Binding affinity to 5'-(CTAA GGT AATG)-3'/5'-(CATT CGA TTAG)-3' duplex DNA (unknown origin) assessed as melting temperature at 5 uM by fluorimetric method
dsDNA [7] = experiment: Binding affinity to 5'-(CTAA CGG AATG)-3'/5'-(CATT CGG TTAG)-3' duplex DNA (unknown origin) at 7.5 uM by fluorescence titration method
dsDNA [8] = experiment: Binding affinity to 5'-(CTAA GGA AATG)-3'/5'-(CATT CGT TTAG)-3' duplex DNA (unknown origin) assessed as melting temperature at 5 uM by fluorimetric method
dsDNA [9] = experiment: Binding affinity to 5'-(CTAA GGC AATG)-3'/5'-(CATT GGC TTAG)-3' duplex DNA (unknown origin) at 7.5 uM by fluorescence titration method
dsDNA [10] = experiment: Binding affinity to 5'-(CTAA CGA AATG)-3'/5'-(CATT GGT TTAG)-3' duplex DNA (unknown origin) assessed as melting temperature at 5 uM by fluorimetric method
dsDNA [11] = experiment: Binding affinity to 5'-(CTAA GGC AATG)-3'/5'-(CATT CGG TTAG)-3' duplex DNA (unknown origin) assessed as melting temperature at 5 uM by fluorimetric method
dsDNA [12] = experiment: Binding affinity to 5'-(CTAA CGG AATG)-3'/5'-(CATT GGC TTAG)-3' duplex DNA (unknown origin) assessed as melting temperature at 5 uM by fluorimetric method
dsDNA [13] = experiment: Binding affinity to 5'-(CTAA CGT AATG)-3'/5'-(CATT GGA TTAG)-3' duplex DNA (unknown origin) assessed as melting temperature at 5 uM by fluorimetric method

Row | ΔTm (dsDNA [1]) [°C] | Activity (dsDNA [2]) | Ka (dsDNA [3]) [×10⁷ /M] | Activity (dsDNA [4]) | ΔTm (dsDNA [5]) [°C] | Tm (dsDNA [6]) [°C] | Activity (dsDNA [7]) | Activity (dsDNA [3]) | Tm (dsDNA [8]) [°C] | Activity (dsDNA [9]) | Tm (dsDNA [10]) [°C] | Tm (dsDNA [11]) [°C] | Tm (dsDNA [12]) [°C] | Tm (dsDNA [13]) [°C] | SMILES
1 | 2 | Active | 2.09 | Active | 23 | – | – | – | – | – | – | – | – | – | Cc1ccc2ccc(NC(=O)OCCCNCCCOC(=O)Nc3ccc4ccc(C)nc4n3)nc2n1
2 | 1.6 | – | – | – | 22.9 | 27.1 | Active | inactive | 26.7 | Active | 24.1 | 34.7 | 26.5 | 24.9 | Cc1ccc2ccc(NC(=O)OCCCN(CCCOC(=O)Nc3ccc4ccc(C)nc4n3)CCCOC(=O)Nc3ccc4ccc(C)nc4n3)nc2n1
